Patent US9695155B2, “Herbicidal substituted pyrimidinyloxy benzene compounds” (E. I. DU PONT DE NEMOURS AND COMPANY, priority 2013, dated 2017)

Assays:
[1] = test system: chickweed; assay: Test D preemergence; assay type: in vivo, Stellaria media; settings: Stellaria media, pre-emergence
Method in brief: (§1)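 Plant response is a visual score from 0 (no effect) to 100 (complete control) relative to controls. Plants were kept in a controlled growth environment for 7 to 21 days after spraying. Preemergence treatments went onto silt loam soil; postemergence ones onto 1- to 4-leaf seedlings.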

[2] = test system: wild buckwheat; assay: Test D preemergence; assay type: in vivo, Polygonum convolvulus; settings: Fallopia convolvulus, pre-emergence
Text: (§2) Seeds of plant species selected from bluegrass (annual bluegrass, Poa annua), blackgrass (Alopecurus myosuroides), canarygrass (littleseed canarygrass, Phalaris minor), chickweed (common chickweed, Stellaria media), galium (catchweed bedstraw, Galium aparine), bromegrass, downy (downy bromegrass, Bromus tectorum), field poppy (Papaver rhoeas), field violet (Viola arvensis), green foxtail (Setaria viridis), deadnettle (henbit deadnettle, Lamium amplexicaule), Italian ryegrass (Lolium multiflorum), kochia (Kochia scoparia), lambsquarters (Chenopodium album), oilseed rape (Brassica napus), pigweed (Amaranthus retroflexus), chamomile (scentless chamomile, Matricaria inodora), Russian thistle (Salsola kali), speedwell (bird's-eye speedwell, Veronica persica), spring barley (Hordeum vulgare), spring wheat (Triticum aestivum), wild buckwheat (Polygonum convolvulus), wild mustard (Sinapis arvensis), wild oat (Avena fatua), wild radish (Raphanus raphanistrum), windgrass (Apera spica-venti), winter barley (Hordeum vulgare), and winter wheat (Triticum aestivum) were planted into a silt loam soil and treated preemergence with test chemicals formulated in a non-phytotoxic solvent mixture which included a surfactant.
(§3) At the same time, these species were planted in pots containing Redi-Earth® planting medium (Scotts Company, 14111 Scottslawn Road, Marysville, Ohio 43041) comprising spaghnum peat moss, vermiculite, wetting agent and starter nutrients and treated with postemergence applications of the test chemicals formulated in the same manner. Plants ranged in height from 2 to 18 cm (1- to 4-leaf stage). Treated plants and controls were maintained in a controlled growth environment for 7 to 21 days after which time all species were compared to controls and visually evaluated. Plant response ratings, summarized in Table D, are based on a scale of 0 to 100 where 0 is no effect and 100 is complete control. A dash (-) response means no test result.

[3] = test system: galium; assay: Test D postemergence; assay type: in vivo, Galium aparine; settings: Galium, post-emergence
Text: as §2, §3

[4] = test system: field poppy; assay: Test D preemergence; assay type: in vivo, Papaver rhoeas; settings: Papaver rhoeas, pre-emergence
Text: as §2, §3

[5] = test system: chickweed; assay: Test F preemergence; assay type: in vivo, Stellaria media; settings: 21 days, scale 0 to 100
Method in brief: (§4)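 Visual ratings from 0 (no effect) to 100 (complete control), scored against untreated controls after 21 days in the greenhouse. Test chemicals, formulated in a non-phytotoxic solvent blend with surfactant, were applied preemergence to seeds planted in loam soil mixed with sand.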

[6] = test system: deadnettle; assay: Test D preemergence; assay type: in vivo, Lamium amplexicaule; settings: Lamium amplexicaule, pre-emergence
Method in brief: as §1

[7] = test system: bluegrass; assay: Test F preemergence; assay type: in vivo, Poa annua; settings: 21 days, scale 0 to 100
Text: (§5) Seeds of plant species selected from bermudagrass (Cynodon dactylon), surinam grass (Brachiaria decumbens), large (Lg) crabgrass (Digitaria sanguinalis), crabgrass, naked (naked crabgrass, Digitaria nuda), foxtail, green (green foxtail, Setaria viridis), johnsongrass (Sorghum halepense), kochia (Kochia scoparia), morningglory (pitted morningglory, Ipomoea lacunosa), nutsedge, purple (purple nutsedge, Cyperus rotundus), ragweed (common ragweed, Ambrosia elatior), mustard, black (black mustard, Brassica nigra), guineagrass (Panicum maximum), dallisgrass (Paspalum dilatatum), barnyardgrass (Echinochloa crus-galli), sandbur (southern sandbur, Cenchrus echinatus), sowthistle (common sowthistle, Sonchus oleraceous), Italian ryegrass (Lolium multiflorum), signalgrass (broadleaf signalgrass, Brachiaria platyphylla), dayflower (Virginia (VA) dayflower, Commelina virginica), bluegrass (annual bluegrass, Poa annua), quackgrass (Elytrigia repens), mallow (common mallow, Malva sylvestris), buckwheat, wild (wild buckwheat, Polygonum convolvulus), leafy spurge (Euphorbia esula), chickweed (common chickweed, Stellaria media), wild poinsettia (Euphorbia heterophylla), and pigweed (Amaranthus retroflexus) were planted into a blend of loam soil and sand and treated preemergence with test chemicals formulated in a non-phytotoxic solvent mixture which included a surfactant.
(§6) Treated plants and controls were maintained in a greenhouse for 21 days, after which time all species were compared to controls and visually evaluated. Plant response ratings, summarized in Table F, are based on a scale of 0 to 100 where 0 is no effect and 100 is complete control. A dash (-) response means no test result.

[8] = test system: mallow; assay: Test F preemergence; assay type: in vivo, Malva sylvestris; settings: 21 days, scale 0 to 100
Text: as §5, §6

[9] = test system: mustard, black; assay: Test F preemergence; assay type: in vivo, Brassica nigra; settings: 21 days, scale 0 to 100
Text: as §5, §6

[10] = test system: Italian ryegrass; assay: Test F preemergence; assay type: in vivo, Lolium multiflorum; settings: 21 days, scale 0 to 100
Text: as §5, §6

[11] = test system: johnsongrass; assay: Test F preemergence; assay type: in vivo, Sorghum halepense; settings: 21 days, scale 0 to 100
Method in brief: as §4

[12] = test system: foxtail, green; assay: Test F preemergence; assay type: in vivo, Setaria viridis; settings: 21 days, scale 0 to 100
Text: as §5, §6

[13] = test system: wild poinsettia; assay: Test F preemergence; assay type: in vivo, Euphorbia heterophylla; settings: 21 days, scale 0 to 100
Text: as §5, §6

[14] = test system: winter barley; assay: Test D preemergence; assay type: in vivo, Hordeum vulgare; settings: Hordeum vulgare, pre-emergence
Method in brief: as §1

[15] = test system: spring barley; assay: Test D preemergence; assay type: in vivo, Hordeum vulgare; settings: Hordeum vulgare, pre-emergence
Method in brief: as §1

SMILES: N#Cc1cccc(Oc2ncc(Cl)cn2)c1-n1cc(OCC(F)(F)F)cn1 [Compound 274, 3-[(5-chloro-2-pyrimidinyl)oxy]-2-[4-(2,2,2-trifluoroethoxy)-1H-pyrazol-1-yl]benzonitrile]
- pest or weed control at 16 g/ha ([1]; 16 g ai/ha, scale 0 (no effect) to 100 (complete control), read-out: Plant response rating, Chickweed): 60%
- pest or weed control at 31 g/ha ([1]; 31 g ai/ha, scale 0-100, read-out: Plant response rating, Chickweed): 85%
- pest or weed control at 62 g/ha ([1]; 62 g ai/ha, scale 0-100, read-out: Plant response rating, Chickweed): 100%
- pest or weed control at 125 g/ha ([1]; 125 g ai/ha, scale 0-100, read-out: Plant response rating, Chickweed): 100%
- pest or weed control at 16 g/ha ([2]; 16 g ai/ha, scale 0 (no effect) to 100 (complete control), read-out: Plant response rating, Buckwheat, Wild): 10%
- pest or weed control at 31 g/ha ([2]; 31 g ai/ha, scale 0-100, read-out: Plant response rating, Buckwheat, Wild): 100%
- pest or weed control at 62 g/ha ([2]; 62 g ai/ha, scale 0-100, read-out: Plant response rating, Buckwheat, Wild): 100%
- pest or weed control at 125 g/ha ([2]; 125 g ai/ha, scale 0-100, read-out: Plant response rating, Buckwheat, Wild): 100%
- pest or weed control at 16 g/ha ([3]; 16 g ai/ha, scale 0-100, read-out: Plant response rating, Galium): 70%
- pest or weed control at 31 g/ha ([3]; 31 g ai/ha, scale 0 to 100 (0 no effect, 100 complete control), read-out: Plant response rating, Galium): 70%
- pest or weed control at 62 g/ha ([3]; 62 g ai/ha, scale 0 to 100 (0 no effect, 100 complete control), read-out: Plant response rating, Galium): 75%
- pest or weed control at 125 g/ha ([3]; 125 g ai/ha, scale 0 to 100 (0 no effect, 100 complete control), read-out: Plant response rating, Galium): 85%
- pest or weed control at 16 g/ha ([4]; 16 g ai/ha, scale 0 (no effect) to 100 (complete control), read-out: Plant response rating, Field Poppy): 75%
- pest or weed control at 31 g/ha ([4]; 31 g ai/ha, scale 0-100, read-out: Plant response rating, Field Poppy): 100%
- pest or weed control at 62 g/ha ([4]; 62 g ai/ha, scale 0-100, read-out: Plant response rating, Field Poppy): 100%
- pest or weed control at 125 g/ha ([4]; 125 g ai/ha, scale 0-100, read-out: Plant response rating, Field Poppy): 100%
- Plant response rating, Chickweed ([5]; 16 g ai/ha): 98
- Plant response rating, Chickweed ([5]; 31 g ai/ha): 98
- Plant response rating, Chickweed ([5]; 62 g ai/ha): 100
- Plant response rating, Chickweed ([5]; 125 g ai/ha): 100
- Plant response rating, Chickweed ([5]; 250 g ai/ha): 100
- pest or weed control at 16 g/ha ([6]; 16 g ai/ha, scale 0 (no effect) to 100 (complete control), read-out: Plant response rating, Deadnettle): 55%
- pest or weed control at 31 g/ha ([6]; 31 g ai/ha, scale 0-100, read-out: Plant response rating, Deadnettle): 100%
- pest or weed control at 62 g/ha ([6]; 62 g ai/ha, scale 0-100, read-out: Plant response rating, Deadnettle): 100%
- pest or weed control at 125 g/ha ([6]; 125 g ai/ha, scale 0-100, read-out: Plant response rating, Deadnettle): 100%
- Plant response rating, Bluegrass ([7]; 16 g ai/ha): 0
- Plant response rating, Bluegrass ([7]; 31 g ai/ha): 20
- Plant response rating, Bluegrass ([7]; 62 g ai/ha): 50
- Plant response rating, Bluegrass ([7]; 125 g ai/ha): 85
- Plant response rating, Bluegrass ([7]; 250 g ai/ha): 100
- Plant response rating, Mallow ([8]; 16 g ai/ha): 98
- Plant response rating, Mallow ([8]; 31 g ai/ha): 98
- Plant response rating, Mallow ([8]; 62 g ai/ha): 98
- Plant response rating, Mallow ([8]; 125 g ai/ha): 100
- Plant response rating, Mallow ([8]; 250 g ai/ha): 100
- Plant response rating, Mustard, Black ([9]; 16 g ai/ha): 98
- Plant response rating, Mustard, Black ([9]; 31 g ai/ha): 100
- Plant response rating, Mustard, Black ([9]; 62 g ai/ha): 100
- Plant response rating, Mustard, Black ([9]; 125 g ai/ha): 100
- Plant response rating, Mustard, Black ([9]; 250 g ai/ha): 100
- Plant response rating, Ryegrass, Italian ([10]; 16 g ai/ha): 35
- Plant response rating, Ryegrass, Italian ([10]; 31 g ai/ha): 40
- Plant response rating, Ryegrass, Italian ([10]; 62 g ai/ha): 70
- Plant response rating, Ryegrass, Italian ([10]; 125 g ai/ha): 75
- Plant response rating, Ryegrass, Italian ([10]; 250 g ai/ha): 100
- Plant response rating, Johnsongrass ([11]; 16 g ai/ha): 65
- Plant response rating, Johnsongrass ([11]; 31 g ai/ha): 70
- Plant response rating, Johnsongrass ([11]; 62 g ai/ha): 100
- Plant response rating, Johnsongrass ([11]; 125 g ai/ha): 100
- Plant response rating, Johnsongrass ([11]; 250 g ai/ha): 100
- Plant response rating, Foxtail, Green ([12]; 16 g ai/ha): 100
- Plant response rating, Foxtail, Green ([12]; 31 g ai/ha): 100
- Plant response rating, Foxtail, Green ([12]; 62 g ai/ha): 100
- Plant response rating, Foxtail, Green ([12]; 125 g ai/ha): 100
- Plant response rating, Foxtail, Green ([12]; 250 g ai/ha): 100
- Plant response rating, Poinsettia, Wild ([13]; 16 g ai/ha): 5
- Plant response rating, Poinsettia, Wild ([13]; 31 g ai/ha): 10
- Plant response rating, Poinsettia, Wild ([13]; 62 g ai/ha): 70
- Plant response rating, Poinsettia, Wild ([13]; 125 g ai/ha): 95
- Plant response rating, Poinsettia, Wild ([13]; 250 g ai/ha): 100
- plant injury at 16 g/ha ([14]; 16 g ai/ha, scale 0 (no effect) to 100 (complete control), read-out: Plant response rating, Barley, Winter): 0%
- plant injury at 31 g/ha ([14]; 31 g ai/ha, scale 0-100, read-out: Plant response rating, Barley, Winter): 0%
- plant injury at 62 g/ha ([14]; 62 g ai/ha, scale 0-100, read-out: Plant response rating, Barley, Winter): 10%
- plant injury at 125 g/ha ([14]; 125 g ai/ha, scale 0-100, read-out: Plant response rating, Barley, Winter): 55%
- plant injury at 16 g/ha ([15]; 16 g ai/ha, scale 0 (no effect) to 100 (complete control), read-out: Plant response rating, Barley, Spring): 0%
- plant injury at 31 g/ha ([15]; 31 g ai/ha, scale 0-100, read-out: Plant response rating, Barley, Spring): 0%
- plant injury at 62 g/ha ([15]; 62 g ai/ha, scale 0-100, read-out: Plant response rating, Barley, Spring): 10%
- plant injury at 125 g/ha ([15]; 125 g ai/ha, scale 0-100, read-out: Plant response rating, Barley, Spring): 15%
